Results reported in ChEMBL document CHEMBL1152590, “Computational modeling of novel inhibitors targeting the Akt pleckstrin homology domain” (Bioorg Med Chem, 2009).

Test system: Caco-2
Assay: Permeability across human Caco-2 cells

| SMILES | logPapp |
| --- | --- |
| CN/C(=N/CCSCc1nc[nH]c1C)NC#N [CIMETIDINE] | -5.89 |
| CC(C)(C)NC[C@H](O)COc1nsnc1N1CCOCC1 [TIMOLOL] | -4.85 |
| NCCc1ccc(O)c(O)c1 [DOPAMINE] | -5.03 |
| C=CCOc1ccccc1OCC(O)CNC(C)C (stereo unspecified) [OXPRENOLOL] | -4.68 |
| CC(C)NCC(O)COc1cccc2[nH]ccc12 (stereo unspecified) [PINDOLOL] | -4.78 |
| CC(=O)[C@H]1CC[C@H]2[C@@H]3CCC4=CC(=O)CC[C@]4(C)[C@H]3CC[C@]12C [PROGESTERONE] | -4.37 |
| CCOC(=O)[C@H](CCc1ccccc1)N[C@@H](C)C(=O)N1CCC[C@H]1C(=O)O | -5.64 |
| Cn1c(=O)c2[nH]cnc2n(C)c1=O.O [THEOPHYLLINE] | -4.35 |
| O=C(O)c1ccccc1O [SALICYLIC ACID] | -4.79 |
| CN1CCC[C@H]1c1cccnc1 [NICOTINE] | -4.71 |
| CNC(=C[N+](=O)[O-])NCCSCc1ccc(CN(C)C)o1 [RANITIDINE] | -6.31 |
| CCCc1nc2c(C)cc(-c3nc4ccccc4n3C)cc2n1Cc1ccc(-c2ccccc2C(=O)O)cc1 | -4.82 |
| Clc1cccc(Cl)c1N=C1NCCN1 [CLONIDINE] | -4.59 |
| O=C(O)c1cc(/N=N/c2ccc(S(=O)(=O)Nc3ccccn3)cc2)ccc1O [SULFASALAZINE] | -6.33 |
| CNC[C@H](O)c1ccc(O)c(O)c1 [EPINEPHRINE] | -6.02 |
| c1ccc(C2(N3CCCCC3)CCCCC2)cc1 [PHENCYCLIDINE] | -4.61 |
